Source: patent US8802597B2, “Herbicidal pyrimidines” (E I du Pont de Nemours and Company, priority 2003, dated 2014)

Tests used:
Format in all cases: in vivo
[1] = test system: barnyardgrass (Echinochloa crus-galli); assay: Test A pre/postemergence
Outline: (§1)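 After planting in loam and sand, species received test chemical as preemergence soil spray; postemergence spray went on 2–10 cm plants at 1–2 leaves at the same time. Evaluation: visual injury, ~10 d, 0 no effect to 100 complete control.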

[2] = test system: crabgrass (Digitaria sanguinalis); assay: Test A pre/postemergence
Outline: as §1

[3] = test system: giant foxtail (Setaria faberi); assay: Test A pre/postemergence
Outline: as §1

[4] = test system: morningglory (Ipomoea spp.); assay: Test A pre/postemergence
Outline: as §1

[5] = test system: redroot pigweed (Amaranthus retroflexus); assay: Test A pre/postemergence
Outline: as §1

[6] = test system: velvetleaf (Abutilon theophrasti); assay: Test A pre/postemergence
Outline: as §1

[7] = test system: kochia (Kochia scoparia); assay: Test C pre/postemergence; conditions: for Plant response rating (scale of 0 to 100), Kochia / Kochia plant response rating: Postemergence; for Kochia plant response rating: scale 0 to 100 (0 no effect, 100 complete control); for Plant response rating, Kochia: Preemergence
Outline: (§2)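 Seeds sown and sprayed preemergence with test compound in non-phytotoxic solvent containing surfactant; postemergence sprays, same formulation, went onto plants 2 to 18 cm tall (1- to 4-leaf stage). Plants held in greenhouse 12 to 14 days, then visually rated against untreated controls on a 0–100 scale (0 no effect, 100 complete control).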

[8] = test system: crabgrass (Digitaria sanguinalis); assay: Test C pre/postemergence; conditions: for Plant response rating (scale of 0 to 100), Crabgrass / Crabgrass plant response rating: Postemergence; for Crabgrass plant response rating: scale 0 to 100 (0 no effect, 100 complete control); for Plant response rating, Crabgrass: Preemergence
Outline: as §2

[9] = test system: johnsongrass (Sorghum halepense); assay: Test C pre/postemergence; conditions: for Plant response rating (scale of 0 to 100), Johnsongrass / Johnsongrass plant response rating: Postemergence; for Johnsongrass plant response rating: scale 0 to 100 (0 no effect, 100 complete control); for Plant response rating, Johnsongrass: Preemergence
Outline: as §2

[10] = test system: cocklebur (Xanthium strumarium); assay: Test C pre/postemergence; conditions: for Plant response rating (scale of 0 to 100), Cocklebur / Cocklebur plant response rating: Postemergence; for Cocklebur plant response rating: scale 0 to 100 (0 no effect, 100 complete control); for Plant response rating, Cocklebur: Preemergence
Outline: as §2

[11] = test system: pigweed (Amaranthus retroflexus); assay: Test C pre/postemergence; conditions: for Plant response rating (scale of 0 to 100), Pigweed / Pigweed plant response rating: Postemergence; for Pigweed plant response rating: 125 g ai/ha, scale 0 to 100 (0 no effect, 100 complete control); for Plant response rating, Pigweed: Preemergence, scale 0 to 100, 0 no effect, 100 complete control
Outline: as §2

[12] = Postemergence, 125 g ai/ha, 0 to 100 scale (0 no effect, 100 complete control)
[13] = Postemergence, 500 g ai/ha, 0 to 100 scale (0 no effect, 100 complete control)
[14] = Preemergence, 125 g ai/ha, 0 to 100 scale where 0 is no effect and 100 is complete control, approximately ten days
[15] = Preemergence, 500 g ai/ha, 0 to 100 scale where 0 is no effect and 100 is complete control, approximately ten days
[16] = 16 g ai/ha, scale 0 to 100, 0 no effect, 100 complete control
[17] = 31 g ai/ha, scale 0 to 100, 0 no effect, 100 complete control
[18] = 62 g ai/ha, scale 0 to 100, 0 no effect, 100 complete control

## Nc1nc(-c2ccc(Cl)cc2)nc(C(=O)[O-])c1Cl.[Na+] [Compound 117]
[1]; [12]
  Plant response rating, Barnyardgrass: 85
[1]; [13]
  Plant response rating, Barnyardgrass: 90
[1]; [14]
  Plant response rating, Barnyardgrass: 25
[1]; [15]
  Plant response rating, Barnyardgrass: 85
[2]; [12]
  Plant response rating, Crabgrass: 75
[2]; [13]
  Plant response rating, Crabgrass: 90
[2]; [14]
  Plant response rating, Crabgrass: 45
[2]; [15]
  Plant response rating, Crabgrass: 75
[3]; [12]
  Plant response rating, Foxtail, Giant: 80
[3]; [13]
  Plant response rating, Foxtail, Giant: 90
[3]; [14]
  Plant response rating, Foxtail, Giant: 50
[3]; [15]
  Plant response rating, Foxtail, Giant: 85
[4]; [12]
  Plant response rating, Morningglory: 90
[4]; [13]
  Plant response rating, Morningglory: 90
[4]; [14]
  Plant response rating, Morningglory: 10
[4]; [15]
  Plant response rating, Morningglory: 85
[5]; [12]
  Plant response rating, Pigweed: 100
[5]; [13]
  Plant response rating, Pigweed: 100
[5]; [14]
  Plant response rating, Pigweed: 65
[5]; [15]
  Plant response rating, Pigweed: 100
[6]; [12]
  Plant response rating, Velvetleaf: 100
[6]; [13]
  Plant response rating, Velvetleaf: 100
[6]; [14]
  Plant response rating, Velvetleaf: 55
[6]; [15]
  Plant response rating, Velvetleaf: 100
[7]; 16 g ai/ha
  Plant response rating (scale of 0 to 100), Kochia: 90
[7]; 31 g ai/ha
  Plant response rating (scale of 0 to 100), Kochia: 90
[7]; 62 g ai/ha
  Plant response rating (scale of 0 to 100), Kochia: 90
[7]; 125 g ai/ha
  Kochia plant response rating: 90
[7]; [16]
  Plant response rating, Kochia: 0
[7]; [17]
  Plant response rating, Kochia: 5
[7]; [18]
  Plant response rating, Kochia: 20
[7]; 125 g ai/ha, scale 0 to 100
  Plant response rating, Kochia: 60
[8]; 16 g ai/ha
  Plant response rating (scale of 0 to 100), Crabgrass: 85
[8]; 31 g ai/ha
  Plant response rating (scale of 0 to 100), Crabgrass: 90
[8]; 62 g ai/ha
  Plant response rating (scale of 0 to 100), Crabgrass: 90
[8]; 125 g ai/ha
  Crabgrass plant response rating: 90
[8]; [16]
  Plant response rating, Crabgrass: 0
[8]; [17]
  Plant response rating, Crabgrass: 0
[8]; [18]
  Plant response rating, Crabgrass: 0
[8]; 125 g ai/ha, scale 0 to 100
  Plant response rating, Crabgrass: 60
[9]; 16 g ai/ha
  Plant response rating (scale of 0 to 100), Johnsongrass: 10
[9]; 31 g ai/ha
  Plant response rating (scale of 0 to 100), Johnsongrass: 50
[9]; 62 g ai/ha
  Plant response rating (scale of 0 to 100), Johnsongrass: 50
[9]; 125 g ai/ha
  Johnsongrass plant response rating: 50
[9]; [16]
  Plant response rating, Johnsongrass: 0
[9]; [17]
  Plant response rating, Johnsongrass: 35
[9]; [18]
  Plant response rating, Johnsongrass: 60
[9]; 125 g ai/ha, scale 0 to 100
  Plant response rating, Johnsongrass: 70
[10]; 16 g ai/ha
  Plant response rating (scale of 0 to 100), Cocklebur: 90
[10]; 62 g ai/ha
  Plant response rating (scale of 0 to 100), Cocklebur: 90
[10]; 125 g ai/ha
  Cocklebur plant response rating: 90
[10]; [16]
  Plant response rating, Cocklebur: 0
[10]; [17]
  Plant response rating, Cocklebur: 0
[10]; [18]
  Plant response rating, Cocklebur: 5
[10]; 125 g ai/ha, scale 0 to 100
  Plant response rating, Cocklebur: 90
[11]; 16 g ai/ha
  Plant response rating (scale of 0 to 100), Pigweed: 90
  Plant response rating, Pigweed: 50
[11]; 31 g ai/ha
  Plant response rating (scale of 0 to 100), Pigweed: 95
  Plant response rating, Pigweed: 80
[11]; 62 g ai/ha
  Plant response rating (scale of 0 to 100), Pigweed: 95
  Plant response rating, Pigweed: 90
[11]
  Pigweed plant response rating: 95

## CCOC(=O)c1nc(-c2ccc(I)cc2)nc(N)c1Cl [Compound 133]
[1]; [12]
  Plant response rating, Barnyardgrass: 10
[1]; [13]
  Plant response rating, Barnyardgrass: 40
[1]; [14]
  Plant response rating, Barnyardgrass: 0
[1]; [15]
  Plant response rating, Barnyardgrass: 15
[2]; [12]
  Plant response rating, Crabgrass: 30
[2]; [13]
  Plant response rating, Crabgrass: 55
[2]; [14]
  Plant response rating, Crabgrass: 0
[2]; [15]
  Plant response rating, Crabgrass: 45
[3]; [12]
  Plant response rating, Foxtail, Giant: 15
[3]; [13]
  Plant response rating, Foxtail, Giant: 60
[3]; [14]
  Plant response rating, Foxtail, Giant: 0
[3]; [15]
  Plant response rating, Foxtail, Giant: 30
[4]; [12]
  Plant response rating, Morningglory: 70
[4]; [13]
  Plant response rating, Morningglory: 85
[4]; [14]
  Plant response rating, Morningglory: 0
[4]; [15]
  Plant response rating, Morningglory: 35
[5]; [12]
  Plant response rating, Pigweed: 80
[5]; [13]
  Plant response rating, Pigweed: 90
[5]; [14]
  Plant response rating, Pigweed: 10
[5]; [15]
  Plant response rating, Pigweed: 65
[6]; [12]
  Plant response rating, Velvetleaf: 80
[6]; [13]
  Plant response rating, Velvetleaf: 85
[6]; [14]
  Plant response rating, Velvetleaf: 10
[6]; [15]
  Plant response rating, Velvetleaf: 30
[7]; 16 g ai/ha
  Plant response rating (scale of 0 to 100), Kochia: 75
[7]; 31 g ai/ha
  Plant response rating (scale of 0 to 100), Kochia: 80
[7]; 62 g ai/ha
  Plant response rating (scale of 0 to 100), Kochia: 85
[7]; 125 g ai/ha
  Kochia plant response rating: 85
[8]; 16 g ai/ha
  Plant response rating (scale of 0 to 100), Crabgrass: 50
[8]; 31 g ai/ha
  Plant response rating (scale of 0 to 100), Crabgrass: 75
[8]; 62 g ai/ha
  Plant response rating (scale of 0 to 100), Crabgrass: 75
[8]; 125 g ai/ha
  Crabgrass plant response rating: 80
[9]; 16 g ai/ha
  Plant response rating (scale of 0 to 100), Johnsongrass: 70
[9]; 31 g ai/ha
  Plant response rating (scale of 0 to 100), Johnsongrass: 85
[9]; 62 g ai/ha
  Plant response rating (scale of 0 to 100), Johnsongrass: 90
[9]; 125 g ai/ha
  Johnsongrass plant response rating: 95
[10]; 16 g ai/ha
  Plant response rating (scale of 0 to 100), Cocklebur: 75
[10]; 31 g ai/ha
  Plant response rating (scale of 0 to 100), Cocklebur: 85
[10]; 62 g ai/ha
  Plant response rating (scale of 0 to 100), Cocklebur: 95
[10]; 125 g ai/ha
  Cocklebur plant response rating: 95
[11]; 16 g ai/ha
  Plant response rating (scale of 0 to 100), Pigweed: 85
[11]; 31 g ai/ha
  Plant response rating (scale of 0 to 100), Pigweed: 85
[11]; 62 g ai/ha
  Plant response rating (scale of 0 to 100), Pigweed: 95
[11]
  Pigweed plant response rating: 100
